This is an account of results in article PMC12040169 (PLOS Biology, 2025).

The structures appear in SMILES notation.

The nature of the data set: in vitro. The note with it: human, hela cells, % viability.

For orientation: viability means a read-out of living cells in per cent, often relative to untreated cells. In the case of `CC1(C)CC(=O)c2sc(NC(=O)C3COc4ccccc4O3)nc2C1` (stereo not shown) [CBK144104], the viability at 28.5 h, 10 µM was 112%.
`O=C(O)c1ccccc1-c1ccc(/C=C2\S/C(=N\c3ccccc3)N(c3ccccc3)C2=O)o1` [CBK262566]: the viability at 28.5 h, 10 µM was determined as 101%.
In the case of `CC(C)n1c(=O)n(CC(=O)NCc2cccs2)c2cccnc21` [CBK283699] it was 88.6%.
Under `O=C(O)CCn1cc(Br)c([N+](=O)[O-])n1` [CBK286916] stands 90%; under `Cc1cccc(C(C)(C)C)c1NC(=O)NCCc1cccs1` [CBK044530], 98.9%; under `OCCN(CC#CC(O)(c1ccccc1)c1cccc(F)c1)CCO` (stereo not shown) [CBK301210C], 91.2%.
Under `S=c1[nH]cnc2sc3c(c12)CCCC3` [CBK027787] stands 73.7%; under `CCn1cc(CN2CCCCCC2c2cc(C)no2)c(C)n1` (stereo not shown) [CBK282159], 95.6%.
Consider `N#Cc1c(NC(=O)CSc2ncnc3c2cnn3-c2ccccc2)sc2c1CCCC2` [CBK269478], for which the viability at 28.5 h, 10 µM amounted to 92.6%.
Turning to `NC(=O)CSc1ccccc1` [CBK010649], the viability at 28.5 h, 10 µM came out at 91.2%.
Under `CC(C)[C@H]1CN(Cc2ccco2)CCN1Cc1ccccn1` [CBK284275] stands 112%; under `COc1cc(-c2nnc(NC(=O)c3ccc(C)cc3)o2)cc(OC)c1OC` [CBK287699], 92.2%.
In the case of `CC(C)c1ccc(/C=C/C(=O)NCc2cccs2)cc1` [CBK149587] it was 100%.
Turning to `COCC(=O)NCc1cc2n(n1)CCN(Cc1cccs1)C2` [CBK307085], the viability at 28.5 h, 10 µM was found to be 106%.
For `Cc1cc(C)n2ncc(C(=O)N3CCCC3c3ccsc3)c2n1` (stereo not shown) [CBK305616], the viability at 28.5 h, 10 µM is 94.6%.
Under `O=C(Cn1c(C2CCOCC2)cc2cccnc21)N1CCCCCC1` [CBK284674] stands 105%; under `COc1cccc2cc(C(=O)NCCc3ccc(O)cc3)oc12` [CBK149802], 93.9%.
In the case of `COc1cc(C2NC(C(=O)O)Cc3c2[nH]c2ccccc32)cc(OC)c1OC` (stereo not shown) [CBK219193] it was 101%.
In the case of `CC(C)(O)C#Cc1ccc(C(=O)N2CCCC2C(=O)O)s1` (stereo not shown) [CBK286869] it was 79.5%; in that of `Cc1nc(CN2CCCC(NCc3cccc4ccccc34)C2)no1` (stereo not shown) [CBK304068], 71.4%; in that of `O=c1cc(CN2CCC(Oc3nccnc3OCc3ccc(Cl)c(Cl)c3)CC2)[nH]c(=O)[nH]1` [CBK153784], 96.6%.
As for `O=C1/C(=C/c2c(NCCCn3ccnc3)nc3ccccn3c2=O)SC(=S)N1C1CCCCC1` [CBK264696], the viability at 28.5 h, 10 µM is 95.2%.
In the case of `Cc1ncsc1CCOc1ccc(C(F)(F)F)cn1` [CBK115790] it was 101%; in that of `COc1ccc(C(=O)CSc2nnc(C(O)c3ccccc3)n2-c2ccccc2)cc1` (stereo not shown) [CBK265104], 109%; in that of `CC(=O)Nc1ccccc1NC(=O)C(C)Oc1ccc(Cl)cc1Cl` (stereo not shown) [CBK263954], 96.8%.
In the case of `O=C(c1cc(C2CC2)on1)N1CCc2ncc(Cl)cc2C1` [CBK284855] it was 106%.
Under `CC(C)[C@H]1CN(Cc2ccco2)CCN1C(=O)N1CCOCC1` [CBK284273] stands 82.2%; under `COc1ccc(/C=C/C(=O)C2CC2)c(C(=O)O)c1OC` [CBK286639], 97%; under `CC(C)NC(=O)[C@H]1O[C@H](CCN2CCN(c3ccc(F)cc3)CC2)CC[C@@H]1O` [CBK288721], 98.8%.
For the compound `COc1cc(Cn2c(-c3ccc(O)c(OC)c3)nc3ccccc32)ccc1O` [CBK291138], the viability at 28.5 h, 10 µM was determined as 100%.
In the case of `O=[N+]([O-])c1ccc(S(=O)(=O)N2CCC3(CC2)OCCO3)cc1` [CBK269303] it was 97.5%; in that of `CN(C)C(=O)c1ccc(-c2ncc(OCCN3CCOCC3)nc2N)cc1` [CBK145183], 93.1%.
Under `C1=C(CNC(Cc2cccs2)c2nccs2)COCC1` (stereo not shown) [CBK284682] stands 103%; under `CC(=O)N1CCOc2ccccc21` [CBK050388], 92.7%.
In the case of `O=S(=O)(Nc1cnc2ccccc2c1)c1cccs1` [CBK043694] it was 83%.
Consider `CCCCN1CCC(CNc2nccc3sc(S(=O)(=O)NC4CCC4)cc23)CC1` [CBK038275C], for which the viability at 28.5 h, 10 µM came out at 95.9%.
In the case of `Cn1nccc1NS(=O)(=O)c1ccc(F)cc1` [CBK050484] it was 106%.
In the case of `Cc1ccc2cc(CN(CCNC(=O)OC(C)(C)C)C(=O)NCc3ccccc3)c(=O)[nH]c2c1C` [CBK132097] it was 90.2%.
Under `Cc1cccc(OCCOc2ccc(Br)cc2/C=C2\SC(=N)NC2=O)c1` [CBK263958] stands 102%; under `CC(=O)Nc1ccc(NCc2nc(C(C)C)no2)c(C(F)(F)F)c1` [CBK305743], 101%.
For the compound `COc1cncc(-c2cc(Nc3ccc(OC)c(OC)c3)ncn2)c1` [CBK090824], the viability at 28.5 h, 10 µM is 92%.
In the case of `O=S(=O)(c1ccc(Cl)s1)N1CCN(c2ccccn2)CC1` [CBK270305] it was 110%.
In the case of `COC(=O)C1=C(C)N=C2SCCC(=O)N2C1c1ccc(C(C)C)cc1` (stereo not shown) [CBK073523] it was 109%; in that of `Oc1cc(C(F)(F)F)nc(NCc2ccc3ccccc3c2)n1` [CBK003459], 92.2%.
In the case of `COc1cc2c(cc1NS(=O)(=O)N1CCCCC1)oc1ccccc12` [CBK268355] it was 85.8%; in that of `Cc1ccc(S(=O)(=O)N(C)CCCC#N)cc1` [CBK085945], 106%.
`Cc1cc(C)n2ncc(C(=O)NCC(c3cccs3)N3CCCC3)c2n1` (stereo not shown) [CBK305675]: the viability at 28.5 h, 10 µM was found to be 85.3%.
In the case of `CC(C)N1CCC(=NNC(=O)COc2ccc(Cl)cc2Cl)CC1` [CBK262614] it was 83.2%; in that of `Cc1ccc(Nc2cc(-c3cccc(N)c3)ncn2)cc1NS(C)(=O)=O` [CBK091145], 99.1%.
In the case of `CC(C)(C)C1CCc2c(sc(NC(=O)CCC(=O)O)c2C(=O)Nc2ccccc2C(F)(F)F)C1` (stereo not shown) [CBK264143] it was 100%; in that of `Oc1cc(C(F)(F)F)nc(N2CCc3ccccc3C2)n1` [CBK000344], 82%.
In the case of `COc1cnc(-c2cc(Cl)cc(Cl)c2)c(NC(=O)c2ccsc2)n1` [CBK145340] it was 87.8%.
Regarding `CCn1cc(C(=O)O)c(=O)c2cc(F)c(N(C)CCc3ccc(OC)c(OC)c3)cc21` [CBK263070], the viability at 28.5 h, 10 µM was 97.1%.
Take `CCCC1COC(c2ccc(C#N)cc2)OC1` (stereo not shown) [CBK033941]: the viability at 28.5 h, 10 µM amounted to 94.5%.
In the case of `O=C(CC(C(=O)O)C1CCCO1)Nc1ccc(Cl)cc1Cl` (stereo not shown) [CBK261509] it was 86.2%; in that of `CCCC/C=C/c1cnc2[nH]c(=O)n(Cc3ccc(S(N)(=O)=O)cc3)c2n1` [CBK064956], 98.8%; in that of `O=C1CC(c2nc3ccccc3n2CCc2ccccc2)CN1c1ccccc1` (stereo not shown) [CBK266311], 101%.
In the case of `CCc1nnc(SC(C)C(=O)N2CCCc3ccccc32)[nH]1` (stereo not shown) [CBK306009] it was 84.1%.
